This test concerns CRM protein carrier. Briefly: CRM-specific Ig titre in mice immunised with MenC-CRM conjugate with or without α-GalCer. The format is in vivo. To be noted: MenC-CRM conjugate and α-GalCer, compared with conjugate alone; 2wp2 and 2wp3. On the procedure:
C) Immunisation schedule for mice with different polysaccharides, plain, conjugated or admixed with protein carriers, with and without α-GalCer. Ten groups of wild-type C57BL/6 mice were primed on day 0 with: 1) PBS, 2) 0.1 μg with α-GalCer, 3) 10 μg MenC polysaccharide, 4) 20 μg CRM protein carrier, 5) 30 μg of a MenC-CRM conjugate, 6) 10 μg MenC polysaccharide admixed with CRM protein carrier, or the compositions in 3)-6) and α-GalCer (groups 7-10). Mice were boosted two and four weeks after they were primed with the same composition with which they were primed. Mice were bled 2, 4 and 6 weeks after initial priming (2wp1, 2wp2 and 2wp3) and the levels of antibodies against both the MenC polysaccharide and the CRM carrier were measured.
FIG. 5: α-GalCer enhances the specific antibody response against both the MenC polysaccharide and the CRM protein carrier in a MenC-CRM conjugate. Wild-type mice were primed with 10 μg MenC polysaccharide, 20 μg CRM protein carrier, 10 μg MenC polysaccharide admixed with CRM protein carrier (MenC+CRM), or 30 μg of a MenC-CRM conjugate, or the same compositions with α-GalCer. Mice were boosted two and four weeks after they were primed with the same composition with which they were primed.

SMILES strings stand for the structures.

For the compound `CCCCCCCCCCCCCCCCCCCCCCCCCC(=O)N[C@@H](CO[C@H]1O[C@H](CO)[C@H](O)[C@H](O)[C@H]1O)[C@H](O)[C@H](O)CCCCCCCCCCCCCC` [α-GalCer, α-galactosylceramide], the “CRM-specific Ig titre” value is “enhanced”.

Source of the values: patent US8790654B2, “Glycosylceramide adjuvant for saccharide antigens” (Novartis AG, priority 2004, dated 2014).
